According to US20080293712A1, “Benzo[C][2,7]Naphtyridine Derivatives, Methods of Making Thereof and Methods of Use Thereof” (WYETH, priority 2007, published 2008):

What follows are compounds tested against T1, PDK-1 (Homo sapiens, UniProt O15530) (assay: PDK-1 kinase inhibition ELISA assay (phosphorylation of His6-tagged SGK1 S422D by PDK-1)). Details: not given.
T1 sequence (O15530 1-556): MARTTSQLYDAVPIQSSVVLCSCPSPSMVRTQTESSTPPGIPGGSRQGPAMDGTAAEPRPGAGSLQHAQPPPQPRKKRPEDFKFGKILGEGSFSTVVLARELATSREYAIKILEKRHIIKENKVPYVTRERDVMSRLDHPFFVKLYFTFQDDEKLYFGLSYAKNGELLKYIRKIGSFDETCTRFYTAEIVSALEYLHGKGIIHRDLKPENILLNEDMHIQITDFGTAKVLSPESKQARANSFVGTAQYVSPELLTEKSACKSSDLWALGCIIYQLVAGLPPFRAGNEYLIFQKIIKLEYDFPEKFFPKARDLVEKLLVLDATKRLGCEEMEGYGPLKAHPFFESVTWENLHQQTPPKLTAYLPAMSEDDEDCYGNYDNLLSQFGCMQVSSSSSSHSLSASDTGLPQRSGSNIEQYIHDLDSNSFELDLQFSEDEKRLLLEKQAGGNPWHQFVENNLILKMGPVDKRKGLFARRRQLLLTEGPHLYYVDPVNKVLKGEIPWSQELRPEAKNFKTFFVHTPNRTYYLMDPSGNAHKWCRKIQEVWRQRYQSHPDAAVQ
Format: biochemical

IC50 | Compound
183 nM | COc1cc2ncc3c(N)nc(-c4cncc(Nc5ccccc5F)c4)cc3c2cc1OC [Ib-205, 2-{5-[(2-fluorophenyl)amino]pyridin-3-yl}-8,9-dimethoxybenzo[c][2,7]naphthyridin-4-amine]
73.7 nM | COc1ccccc1Nc1cncc(-c2cc3c(cnc4cc(OC)c(OC)cc43)c(N)n2)c1 [Ib-181, 8,9-dimethoxy-2-{5-[(2-methoxyphenyl)amino]pyridin-3-yl}benzo[c][2,7]naphthyridin-4-amine]

Same assay, conditions: PDK-1 ELISA, Table 11; read-out: Average IC50

IC50 | Compound
4 nM | COc1cc2ncc3c(N)nc(-c4cncc(OC[C@@H](N)COc5ncc(Cl)cc5Cl)c4)cc3c2cc1OC [Ib-153, 2-[5-({(2R)-2-amino-3-[(3,5-dichloropyridin-2-yl)oxy]propyl}oxy)pyridin-3-yl]-8,9-dimethoxybenzo[c][2,7]naphthyridin-4-amine]
7 nM | COc1cc2ncc3c(N)nc(-c4cncc(OC[C@@H](N)COc5ncccn5)c4)cc3c2cc1OC [Ib-149, 2-(5-{[(2R)-2-amino-3-(pyrimidin-2-yloxy)propyl]oxy}pyridin-3-yl)-8,9-dimethoxybenzo[c][2,7]naphthyridin-4-amine]
14 nM | COc1cc2ncc3c(N)nc(-c4cncc(OC[C@@H](N)CN5CCCC5)c4)cc3c2cc1OC [Ib-110, 2-(5-{[(2S)-2-amino-3-pyrrolidin-1-ylpropyl]oxy}pyridin-3-yl)-8,9-dimethoxybenzo[c][2,7]naphthyridin-4-amine]
66 nM | COc1cc2ncc3c(N)nc(-c4cncc(Br)c4)cc3c2cc1OC [Ib-15, 2-(5-bromopyridin-3-yl)-8,9-dimethoxybenzo[c]-2,7-naphthyridin-4-amine]
115 nM | COc1cc2ncc3c(N)nc(-c4cncc(Oc5ccncc5N)c4)cc3c2cc1OC [Ib-170, 2-{5-[(3-Aminopyridin-4-yl)oxy]pyridin-3-yl}-8,9-dimethoxybenzo[c][2,7]naphthyridin-4-amine]
12 nM | COc1cc2ncc3c(N)nc(-c4cncc(OC[C@@H](N)CSc5ccc(Cl)cc5Cl)c4)cc3c2cc1OC [Ib-163, 2-[5-({(2R)-2-amino-3-[(2,4-dichlorophenyl)thio]propyl}oxy)pyridin-3-yl]-8,9-dimethoxybenzo[c][2,7]naphthyridin-4-amine]
81 nM | COc1cc2ncc3c(N)nc(-c4cncc(OC[C@@H](N)CNc5ccc(N)cc5)c4)cc3c2cc1OC [Ib-111, N-[(2S)-2-amino-3-{[5-(4-amino-8,9-dimethoxybenzo[c][2,7]naphthyridin-2-yl)pyridin-3-yl]oxy}propyl]benzene-1,4-diamine]
63 nM | COc1cc2ncc3c(N)nc(-c4cncc(OC[C@@H](N)CNC5CCC5)c4)cc3c2cc1OC [Ib-100, (2S)-3-{[5-(4-amino-8,9-dimethoxybenzo[c][2,7]naphthyridin-2-yl)pyridin-3-yl]oxy}-N1-cyclobutylpropane-1,2-diamine]
59 nM | COc1cc2c(cc1N1CCOCC1)ncc1c(N)nc(-c3cncc(OC[C@@H](N)Cc4ccccc4)c3)cc12 [Ia-39, 2-(5-{[(2S)-2-Amino-3-phenylpropyl]oxy}pyridin-3-yl)-9-methoxy-8-morpholin-4-ylbenzo[c]-2,7-naphthyridin-4-amine]
3 nM | COc1cc2ncc3c(N)nc(-c4cncc(OC[C@@H](N)COc5nccs5)c4)cc3c2cc1OC [Ib-156, 2-(5-{[(2R)-2-amino-3-(1,3-thiazol-2-yloxy)propyl]oxy}pyridin-3-yl)-8,9-dimethoxybenzo[c][2,7]naphthyridin-4-amine]
50 nM | COc1ccc(-c2cc3c(cnc4cc(OC)c(OC)cc43)c(N)n2)cn1 [Ib-237, 8,9-dimethoxy-2-(6-methoxypyridin-3-yl)benzo[c][2,7]naphthyridin-4-amine]
3 nM | COc1cc2ncc3c(N)nc(-c4cncc(OC[C@@H](N)CSc5nccn5C)c4)cc3c2cc1OC [Ib-161, 2-[5-({(2R)-2-amino-3-[(1-methyl-1H-imidazol-2-yl)thio]propyl}oxy)pyridin-3-yl]-8,9-dimethoxybenzo[c][2,7]naphthyridin-4-amine]
7 nM | CCN(Cc1ccncc1)C[C@H](N)COc1cncc(-c2cc3c(cnc4cc(OC)c(OC)cc43)c(N)n2)c1 [Ib-21, (2S)-3-{[5-(4-amino-8,9-dimethoxybenzo[c]-2,7-naphthyridin-2-yl)pyridin-3-yl]oxy}-N1-ethyl-N1-(pyridin-4-ylmethyl)propane-1,2-diamine]
91 nM | COc1cc2ncc3c(N)nc(-c4cncc(Nc5ccc(CCO)cc5)c4)cc3c2cc1OC [Ib-198, 2-(4-{[5-(4-amino-8,9-dimethoxybenzo[c][2,7]naphthyridin-2-yl)pyridin-3-yl]amino}phenyl)ethanol]
5 nM | COc1cc2ncc3c(N)nc(-c4cncc(OC[C@@H](N)CNc5ccc(F)cc5F)c4)cc3c2cc1OC [Ib-85, (2S)-3-{[5-(4-amino-8,9-dimethoxybenzo[c][2,7]naphthyridin-2-yl)pyridin-3-yl]oxy}-N1-(2,4-difluorophenyl)propane-1,2-diamine]
3 nM | COc1cc2ncc3c(N)nc(-c4cncc(OC[C@@H](N)CNc5ccccc5)c4)cc3c2cc1OC [Ib-80, (2S)-3-{[5-(4-amino-8,9-dimethoxybenzo[c][2,7]naphthyridin-2-yl)pyridin-3-yl]oxy}-N^1-phenylpropane-1,2-diamine]
9 nM | COc1cc2ncc3c(N)nc(-c4cncc(OC[C@@H](N)COc5cc(C)ccn5)c4)cc3c2cc1OC [Ib-152, 2-[5-({(2R)-2-amino-3-[(4-methylpyridin-2-yl)oxy]propyl}oxy)pyridin-3-yl]-8,9-dimethoxybenzo[c][2,7]naphthyridin-4-amine]
51 nM | COc1cc2ncc3c(N)nc(-c4cncc(Nc5ccccc5-c5ccccc5)c4)cc3c2cc1OC [Ib-204, 2-[5-(biphenyl-2-ylamino)pyridin-3-yl]-8,9-dimethoxybenzo[c][2,7]naphthyridin-4-Amine]
4970 nM | COc1cc2ncc3c(N)nc(N4CC[C@@H](N(C)C)C4)cc3c2cc1OC [Ib-66, 2-[(3R)-3-(dimethylamino)pyrrolidin-1-yl]-8,9-dimethoxybenzo[c]-2,7-naphthyridin-4-amine]
92 nM | COc1cc2ncc3c(N)nc(-c4cncc(OC[C@@H](N)CNC5CCCC5)c4)cc3c2cc1OC [Ib-101, (2S)-3-{[5-(4-amino-8,9-dimethoxybenzo[c][2,7]naphthyridin-2-yl)pyridin-3-yl]oxy}-N1-cyclopentylpropane-1,2-diamine]
2360 nM | COCCOc1cc2ncc3c(N)nc(N4CCC[C@@H]4COC)cc3c2cc1OC [Ia-56, 9-methoxy-8-(2-methoxyethoxy)-2-[(2R)-2-(methoxymethyl)pyrrolidin-1-yl]benzo[c]-2,7-naphthyridin-4-amine]
16 nM | COc1cc2ncc3c(N)nc(-c4cncc(OC[C@@H](N)COS(C)(=O)=O)c4)cc3c2cc1OC [Ib-7, (2R)-2-Amino-3-{[5-(4-amino-8,9-dimethoxybenzo[c]-2,7-naphthyridin-2-yl)pyridin-3-yl]oxy}propyl methanesulfonate]
197 nM | COc1cc2ncc3c(N)nc(-c4cncc(Nc5c(F)c(F)c(C(N)=O)c(F)c5F)c4)cc3c2cc1OC [Ib-190, 4-{[5-(4-amino-8,9-dimethoxybenzo[c][2,7]naphthyridin-2-yl)pyridin-3-yl]amino}-2,3,5,6-tetrafluorobenzamide]
1860 nM | COCCOc1cc2ncc3c(N)nc(N4CCCC4)cc3c2cc1OC [Ia-62, 9-Methoxy-8-(2-methoxyethoxy)-2-pyrrolidin-1-ylbenzo[c]-2,7-naphthyridin-4-amine]
164 nM | COc1cc2ncc3c(N)nc(-c4cncc(Nc5ccccc5C(N)=O)c4)cc3c2cc1OC [Ib-186, 2-{[5-(4-amino-8,9-dimethoxybenzo[c][2,7]naphthyridin-2-yl)pyridin-3-yl]amino}benzamide]
998 nM | COc1cc2ncc3c(N)nc(-c4ccc(F)c(F)c4)cc3c2cc1OC [Ib-240, 2-(3,4-difluorophenyl)-8,9-dimethoxybenzo[c][2,7]naphthyridin-4-amine]
2450 nM | COCCOc1cc2ncc3c(N)nc(N4CCCCC4C)cc3c2cc1OC (centres unmarked) [Ia-43, 9-methoxy-8-(2-methoxyethoxy)-2-(2-methylpiperidin-1-yl)benzo[c]-2,7-naphthyridin-4-amine]
> 20000 nM | CCN1CCCC1CNc1cc2c(cnc3cc(OCCOC)c(OC)cc32)c(NCC2CCCN2CC)n1 (centres unmarked) [Compound I-4, N,N′-bis[(1-ethylpyrrolidin-2-yl)methyl]-9-methoxy-8-(2-methoxyethoxy)benzo[c]-2,7-naphthyridine-2,4-diamine]
4 nM | COc1cc2ncc3c(N)nc(-c4cncc(OC[C@@H](N)COc5ccc(C(F)(F)F)cn5)c4)cc3c2cc1OC [Ib-145, 2-(5-{[(2R)-2-amino-3-{[5-(trifluoromethyl)pyridin-2-yl]oxy}propyl]oxy}pyridin-3-yl)-8,9-dimethoxybenzo[c][2,7]naphthyridin-4-amine]
64 nM | COc1cc2ncc3c(N)nc(-c4cncc(OC[C@@H](N)COc5cc(C(F)(F)F)ccc5F)c4)cc3c2cc1OC [Ib-144, 2-[5-({(2R)-2-amino-3-[2-fluoro-5-(trifluoromethyl)phenoxy]propyl}oxy)pyridin-3-yl]-8,9-dimethoxybenzo[c][2,7]naphthyridin-4-amine]
